In the supplement of paper PMC10307832:

Columns and labels:
Test in all cases: relative viability (nuclei count vs DMSO), 5 days (fraction); higher = more cells survive
Shikonin + Crizotinib = compound: CC(C)=CC[C@@H](O)C1=CC(=O)c2c(O)ccc(O)c2C1=O [Shikonin] + C[C@@H](Oc1cc(-c2cnn(C3CCNCC3)c2)cnc1N)c1c(Cl)ccc(F)c1Cl [Crizotinib] (partner 1 µM)
In short: (§1)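 For relative viability, nuclei counts in treated wells were divided by those in vehicle wells. Lung cancer cell lines had been pin-tool dosed in 1536-well plates the day after seeding and cultured for 5 days, then fixed and stained in one step (final 0.05% Triton X-100, 1% formaldehyde, 1 ug/ml Hoechst) and imaged at 4×. Doses were one drug alone or a fixed anchor-drug dose plus five library-drug doses (not always all listed) in √10 steps, and values are duplicate-plate medians.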

Shikonin + Bortezomib = compound: CC(C)=CC[C@@H](O)C1=CC(=O)c2c(O)ccc(O)c2C1=O [Shikonin] + CC(C)C[C@H](NC(=O)[C@H](Cc1ccccc1)NC(=O)c1cnccn1)B(O)O [Bortezomib] (partner 0.002 µM)
In short: as §1

[1] = compound: CC(C)N(CCCNC(=O)Nc1ccc(C(C)(C)C)cc1)C[C@H]1O[C@@H](n2ccc3c(N)ncnc32)[C@H](O)[C@@H]1O + CC(C)C[C@H](NC(=O)[C@H](Cc1ccccc1)NC(=O)c1cnccn1)B(O)O [Bortezomib] (partner 0.002 µM)
In short: as §1

[2] = compound: CC(C)N(CCCNC(=O)Nc1ccc(C(C)(C)C)cc1)C[C@H]1O[C@@H](n2ccc3c(N)ncnc32)[C@H](O)[C@@H]1O + NC(=O)Nc1cc(-c2cccc(F)c2)sc1C(=O)N[C@H]1CCCNC1 [AZD7762] (partner 0.2 µM)
In short: as §1

| Cell Line | relative viability (Shikonin + Crizotinib; first compound 0.01 µM) | relative viability (Shikonin + Crizotinib; first compound 0.1 µM) | relative viability (Shikonin + Crizotinib; first compound 0.3162 µM) | relative viability (Shikonin + Crizotinib; first compound 1 µM) | relative viability (Shikonin + Bortezomib; first compound 0.01 µM) | relative viability (Shikonin + Bortezomib; first compound 0.1 µM) | relative viability (Shikonin + Bortezomib; first compound 0.3162 µM) | relative viability (Shikonin + Bortezomib; first compound 1 µM) | relative viability ([1]; first compound 0.08 µM) | relative viability ([1]; first compound 0.253 µM) | relative viability ([1]; first compound 0.8 µM) | relative viability ([1]; first compound 2.53 µM) | relative viability ([1]; first compound 8 µM) | relative viability ([2]; first compound 0.08 µM) | relative viability ([2]; first compound 0.253 µM) | relative viability ([2]; first compound 2.53 µM) | relative viability ([2]; first compound 8 µM) | relative viability ([2]; first compound 0.8 µM) |
| --- | --- | --- | --- | --- | --- | --- | --- | --- | --- | --- | --- | --- | --- | --- | --- | --- | --- | --- |
| 201T | 1.01 | 1.08 | 1.04 | 1.08 | 1.12 | 1.23 | 1.14 | 1.15 | 1.08 | 1.11 | 1.03 | 1.07 | 1.06 | 0.6 | 0.554 | 0.56 | 0.622 | – |
| HCC-827 | 0.939 | 0.974 | 0.933 | 0.935 | 1.11 | 1.06 | 1.03 | 1.1 | 1.08 | 0.969 | 0.668 | 1.02 | 0.993 | 0.259 | 0.252 | 0.203 | 0.242 | 0.403 |
| NCI-H2085 | 0.874 | 0.857 | 0.881 | 0.585 | 1.08 | 1.02 | 1.01 | 0.922 | 1.02 | 0.925 | 0.749 | 1.09 | 0.907 | 0.979 | 0.766 | 1.08 | 1 | 0.921 |
| NCI-H647 | 1.13 | 1.29 | 0.931 | 1.01 | 1.06 | 0.829 | 1.05 | 1.03 | 0.761 | – | 0.2 | 0.821 | 0.809 | 0.457 | 0.523 | 0.366 | 0.414 | 0.509 |
| A-427 | 0.978 | 1.12 | 1.03 | 0.847 | 1.07 | 1.17 | 0.979 | 1.05 | 0.927 | 0.973 | 0.996 | 1.01 | 0.967 | 0.79 | 0.682 | 0.699 | 0.711 | 0.735 |
| NCI-H460 | 1.37 | 1.38 | 1.26 | 0.884 | 1.35 | 0.78 | 1.03 | 1.3 | 0.967 | 1.3 | 1.2 | 1.15 | 1.13 | 0.725 | 0.58 | 0.499 | 0.585 | 0.605 |
| NCI-H1703 | 0.873 | 0.671 | 0.633 | 0.512 | 0.302 | 0.361 | 0.23 | 0.114 | 0.244 | 0.316 | 0.273 | 0.381 | 0.307 | 0.145 | – | 0.105 | 0.114 | 0.137 |
| NCI-H1792 | 1.1 | 0.796 | 1.03 | 1.14 | 1.14 | 0.858 | 1.12 | 1.04 | 0.932 | 0.839 | 0.979 | 0.945 | 1.01 | 0.68 | – | 0.569 | 0.601 | 0.46 |
| EMC-BAC-2 | 0.771 | 0.715 | 0.815 | 0.866 | 1.05 | 1.18 | 1.21 | 1.07 | 1 | 1.12 | 0.948 | 0.994 | 0.904 | 1.08 | 1.1 | 1.03 | 0.979 | 1.08 |
